Measured values taken from US20160000762A1, “IMPROVING COGNITIVE FUNCTION” (THE REGENTS OF THE UNIVERSITY OF CALIFORNIA, priority 2013, published 2016).

What was measured:
[1] = Fear conditioning, wild-type mice; type: in vivo; details: 30 mg/kg daily for 2 weeks
Protocol: Fear conditioning. Before initiating fear-conditioning tests, wild-type mice were injected daily with BTA-EG4 or vehicle for 2 weeks (n=8/group). Mice were subsequently trained by exposure to a conditioning box (context) for 3 min before administering a tone (18 s) and footshock (2 s), which were repeated twice at 1 min intervals. We performed the contextual test 24 h after training by re-exposing the mice to the conditioning context. A measurement of freezing behavior was recorded every minute for 3 min inside of the conditioning box. The cued test was conducted 3 h following the contextual test. Following a 3 min reexposure to the conditioning box, a tone (18 s) was administered and freezing behavior was measured for 1 min.

dendritic spines = test: Golgi staining, dendritic spines of APP knockout mice; type: in vivo; details: hippocampal CA1 neurons; 30 mg/kg, 2 weeks
Description: Animals. Wild-type C57BL/6J and APP knockout mice (B6.12957-APPtm1Dbo/J) were obtained from Jackson Laboratories (Bar Harbor, Me., USA). CD1 mice were obtained from Vivasource. All animal experiments were approved by the Institutional Animal Care and Use Committees at Georgetown University and Johns Hopkins University. All animals were maintained according to protocols approved by the Animal Welfare and Use Committee at both institutes.
Golgi staining and morphological analysis of dendritic spines. To analyze dendritic spine density and morphology in brain, FD RAPID GOLGISTAIN KIT™ (FD NeuroTechnologies, Ellicott City, Md., USA) was used. Dissected mouse brains were immersed in Solution A and B for 2 weeks in dark conditions at room temperature and transferred into Solution C for 24 h at 4° C. Brains were sliced using a VT1000S Vibratome (Leica, Bannockburn, Ill., USA) at 150 μm thickness. Dendritic images were acquired by Axioplan 2 (Zeiss, Oberkochen, Germany) under brightfield microscopy. Spine width, length, and linear density of cortical layers II/III and CA1 of hippocampus were measured using Scion image software (Scion Corporation, Frederick, Md., USA). Images were coded, and dendritic spines counted in a blinded manner. Spines from 0.2 to 2 μm in length were included for analysis. All morphological analysis was done blind to experimental conditions. […]

AMPAR and NMDAR subunits = test: Slice surface biotinylation, AMPAR and NMDAR subunits in CA1 slices; type: in vivo, mice
Protocol: Slice surface biotinylation. Hippocampal slices (400 μm thick) were prepared as described above. CA3 and DG regions were cut away after the slice preparation to isolate CA1. After 30 min recovery at room temperature, the slices were transferred to 30° C. for additional 30 min recovery. The slices were then transferred to ice-cold ACSF for 10 min, and subsequently to ice-cold ACSF containing 1 mg/ml biotin (EZ-Link Sulfo-NHS-SS-Biotin, Pierce) saturated with 5% CO2/95% O2 for 15 min. The slices were then washed in tris-buffered saline (TBS: 50 mM Tris, 0.9% NaCl, pH 7.4) containing 100 mM glycine 5 times for 1 min each before homogenized in ice-cold 0.2% SDS/1% Triton X-100 IPB (20 mM Na3PO4, 150 mM NaCl, 10 mM EDTA, 10 mM EGTA, 10 mM Na4P2O7, 50 mM NaF, and 1 mM Na3VO4, pH 7.4; with […] okadaic acid and 10 KIU/ml aprotinin) by 30 gentle strokes using glass-Teflon tissue homogenizers (Pyrex). The homogenates were centrifuged for 10 min at 13,200×g, 4° C. Protein concentration of the supernatant was normalized to 0.6-1.5 mg/ml. Some of the supernatants were saved as inputs, and the remaining supernatant was mixed with neutravidin slurry [1:1 in 1% Triton X-100 IPB (TX-IPB)] and rotated overnight at 4° C. The neutravidin beads were isolated by brief centrifugation at 1,000×g, and washed 3×1% TX-IPB, 3×1% TX-IPB+500 mM NaCl, followed by 2×1% TX-IPB. The biotinylated surface proteins were then eluded from the neutravidin beads by rotating at room temperature for 15 min in gel sample buffer with 2 mM DTT. The input (total homogenate) and biotinylated samples (surface fraction) were run on separate gels, and processed for immunoblot analysis using GluA1 (sc-55509, Santa Cruz), GluA2/3 (07-598, Upstate/Millipore), GluN1 (a gift from Dr. R. Huganir), GluN2A (07-632, Upstate/Millipore), and GluN2B (71-8600, Invitrogen) antibodies. NMDAR subunit blots were developed using enhanced chemifluorescence substrate (ECF™ substrate, Amersham). AMPAR blots were probed simultaneously with GluR1 and GluR2/3 antibodies followed by second antibodies linked to Cy5 and Cy3. All blots were scanned using TYPHOON™ 9400 (GE Health), and quantified using Image Quant TL software (GE Health). The signal of each sample on a blot was normalized to the average signal from the control group to obtain the % of average control values, which were compared across groups using unpaired Student's t-test.
To test whether the increase in functional excitatory synapses is via cell surface recruitment of glutamate receptors, we performed steady-state surface biotinylation using acute hippocampal slices obtained from mice injected with BTA-EG4 (30 mg/kg) or control vehicle for 2 weeks. Both the cell surface and total levels of major AMPAR subunits GluA1 and GluA2, as well as NMDAR subunits GluN1, GluN2A and GluN2B, were quantified.

[2] = Capule and Yang, 2012; Inbar et al., 2006; cited from earlier work

With BTA-EG4 the “freezing, contextual test” value [1] was “significantly increased”, the “freezing, cued test” value [1] was “significantly increased” and the dendritic spine density (dendritic spines) was “did not find a statistically significant increase”. For the same substance, the “cell surface or total expression of GluA1, GluA2, GluN1, GluN2A, GluN2B” value (AMPAR and NMDAR subunits; 30 mg/kg, 2 weeks) was “no significant change”, the GluA1/β-actin ratio (AMPAR and NMDAR subunits; total homogenate, CTRL=0.96±0.10) was 1.06±0.12 and the GluA2/β-actin ratio (AMPAR and NMDAR subunits; total homogenate, CTRL=0.98±0.09) was 1.27±0.14. The GluN1/β-actin ratio (AMPAR and NMDAR subunits; total homogenate, CTRL=0.98±0.12) was 1.27±0.05, the GluN2B/β-actin ratio (AMPAR and NMDAR subunits; total homogenate, CTRL=1.02±0.11) was 1.33±0.14 and the GluN2A/β-actin ratio (AMPAR and NMDAR subunits; total homogenate, CTRL=1.03±0.08) was 1.04±0.14. For the same substance, the blood-brain barrier penetration [2] was “can penetrate the blood-brain barrier” and the toxicity [2] was “no toxicity”.
